Data taken from PMC4615937 (FEBS Open Bio, 2015).
Changes are numbered by the printed parent chain.

Tests used:
Assay type in all cases: binding
[1] = molecular target: T1, wild-type mALAS2 (murine erythroid 5-aminolevulinate synthase) (Mus musculus, UniProt P08680, K299V); test: intrinsic protein fluorescence quenching titration
T1 sequence (P08680 79-587 K299V): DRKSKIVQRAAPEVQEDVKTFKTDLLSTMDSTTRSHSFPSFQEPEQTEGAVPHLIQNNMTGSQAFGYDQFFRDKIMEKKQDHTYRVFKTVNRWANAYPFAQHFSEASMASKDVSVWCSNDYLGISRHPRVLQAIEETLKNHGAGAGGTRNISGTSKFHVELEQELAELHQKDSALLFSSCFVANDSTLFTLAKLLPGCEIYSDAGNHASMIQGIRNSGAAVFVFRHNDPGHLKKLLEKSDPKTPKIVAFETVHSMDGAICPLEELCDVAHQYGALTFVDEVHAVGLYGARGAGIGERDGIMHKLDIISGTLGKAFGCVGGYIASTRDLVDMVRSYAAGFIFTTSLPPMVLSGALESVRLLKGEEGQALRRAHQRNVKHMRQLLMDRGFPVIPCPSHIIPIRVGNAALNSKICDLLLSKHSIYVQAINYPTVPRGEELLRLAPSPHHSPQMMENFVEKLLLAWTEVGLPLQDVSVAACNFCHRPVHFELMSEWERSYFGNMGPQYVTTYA

[2] = molecular target: T2, wild-type mALAS2 (murine erythroid 5-aminolevulinate synthase) (Mus musculus, UniProt P08680); test: intrinsic protein fluorescence quenching titration
T2 sequence (P08680 79-587): T1 sequence (P08680 79-587 K299V) with V221K

[3] = molecular target: T2, wild-type mALAS2 (murine erythroid 5-aminolevulinate synthase); conditions: half-maximal protection; 50 mM phosphate pH 7.5, 10% glycerol, 18 °C; no glycine

Row | Kd [1] [µM] | Kd [2] [µM] | K′ [3] [µM] | SMILES
1 | 431 ± 17 | 302 ± 12 |  | CC(C)(COP(=O)(O)OP(=O)(O)OC[C@H]1O[C@@H](n2cnc3c(N)ncnc32)[C@H](O)[C@@H]1OP(=O)(O)O)[C@@H](O)C(=O)NCCC(=O)NCCS [CoA]
2 | 223 ± 8 | 297 ± 7 | 261 ± 75 | CC(C)(COP(=O)(O)OP(=O)(O)OC[C@H]1O[C@@H](n2cnc3c(N)ncnc32)[C@H](O)[C@@H]1OP(=O)(O)O)[C@@H](O)C(=O)NCCC(=O)NCCSC(=O)CCC(=O)O [succinyl-CoA]
